Where a name gives a salt, the structure may show the parent alone. Read-outs that look alike come from different tables or passages of the source.
Experiments:
[1] = Pharmacokinetics of WN-compounds in mice (brain and serum concentration, HPLC); format: in vivo, mouse (C57BL/6N); conditions: for Cmax: C57BL/6N mouse, oral 50 mg/kg body weight
Experimental: Wild type mice at 8 weeks (male, C57BL/6N) were used for the analysis of CPN-9, WN1303R, WN1312, WN1315 and WN1316 pharmacokinetics. CPN-9 was suspended in 0.5% carboxymethyl cellulose (CMC)-Na (carmellose sodium, Maruishi Pharmaceutical Co., Ltd.), while WN1303R, WN1312 and WN1316 were dissolved in Milli-Q purified water (MQ water) and WN1315 was dissolved in 0.25 N HCl. CPN-9 (100 mg/kg body weight) and the four WN-compounds (50 mg/kg body weight) were injected intragastrically (i.g.). After 15 min, 30 min, 1 h, 2 h, 4 h, 6 h, and 8 h, blood was collected from heart of each mouse anesthetized with 2% isoflurane by inhalation or 4% halothane in a mixture of N2O/O2 (70∶30). Mice were thereafter perfused transcardially with physiological saline containing 10% heparin under anesthesia, and the whole brain was removed. Each blood sample was centrifuged at 1,000×g for 10 min at 4°C, and the serum fraction was collected. The brain was frozen in liquid nitrogen, and was cryopreserved until use.
We mixed serum with deproteinization buffer (0.05 M H2SO4, 2.5 M K2CO3, and […]), and collected the organic layer after centrifugation at 1,500×g for 10 min. The organic layer was mixed with 0.05 M H2SO4, and then, after centrifugation at 1,500×g for 10 min, the water layer was collected. After the addition of methanol, each serum derived sample was subjected to HPLC.
Mouse whole brain was homogenized with acetonitrile and left at −80°C for 10 min. The supernatant was collected after centrifugation at 10,000×g for 10 min at 4°C and was dried under vacuum. The dried sample was re-dissolved in methanol and mixed with two volumes of 10 mM phosphate buffer (pH7.0), after which the supernatant was collected by centrifugation at 10,000×g for 10 min at 4°C and then left at −80°C for 10 min. To further remove debris, the supernatant was filtered (0.45 µm filter), centrifuged (at 10,000×g for 10 min at 4°C), filtered (0.22 µm filter) and finally centrifuged again. Each sample solution from brain was subjected to HPLC.
The concentrations of CPN-9 and WN1316 in the serum and brain samples were determined by HPLC on a CAPCELL PAK C18 column (SHISEIDO) with 50% acetonitrile (CPN-9), 40% acetonitrile (WN1316) or 45% acetonitrile (WN1303R, WN1312, and WN1315) in 10 mM phosphate buffer (pH 7.0).

[2] = Complexing with protein in human serum; format: in vitro ADME; conditions: human sera, unpublished data

SMILES: Cc1cc(C)c(N(C)CC(=O)Nc2nc(-c3ccccn3)c[nH]2)c(C)c1 [WN1316, 2-[mesityl(methyl)amino]-N-[4-(pyridin-2-yl)-1H-imidazol-2-yl] acetamide trihydrochloride]
- AUC0–8: Brain ([1]; C57BL/6N mice, intragastric, 50 mg/kg, n = 4, mean ± SD): 38.9±5.7 µg⋅h/g
- brain AUC0–8 relative to the level observed with CPN-9 ([1]; WN1316 50 mg/kg vs CPN-9 100 mg/kg): about 39 fold
- Cmax ([1]; male, brain, read-out: Cmax in brain): 42.1 µM
- Kp ([1]; male, mouse, brain / serum, oral 50 mg/kg, C57BL/6N, read-out: brain AUC0–8 relative to serum levels): ~4
- AUC(0-t) ([1]; male, mouse, serum, po, C57BL/6N mice, intragastric, 50 mg/kg, n = 4, mean ± SD, read-out: AUC0–8: Serum): 13600 ± 700 ng·h/mL
- Cmax ([1]; male, serum, read-out: Cmax in blood): 9.78 µM
- BBB permeability (in words) ([1]; mouse, in vivo): prominent BBB permeability
- clearance in both brain and serum ([1]; oral 50 mg/kg, C57BL/6N): 8 h
- protein complexing in serum [2]: complexes with protein

Source: publication PMC3909264, “A Novel Acylaminoimidazole Derivative, WN1316, Alleviates Disease Progression via Suppression of Glial Inflammation in ALS Mouse Model” (PLoS ONE, 2014)
